According to patent US20070202192A1, “Fungical Mixtures For Controlling Rice Pathogens” (BASF AKTIENGESELLSCHAFT, priority 2003, published 2007):
Where a name gives a salt, the structure may show the parent alone.

Tested on: Cochliobolus miyabeanus
Experiment: activity against brown spot of rice caused by Cochliobolus miyabeanus, protective application
Format: in vivo
Conditions: rice seedlings cultivar Tai-Nong 67, protective application, 6 days after inoculation
Method: 1% by weight of the emulsifier Uniperol® EL (wetting agent having emulsifying and dispersant action based on ethoxylated alkylphenols) was added to this solution, and the mixture was diluted with water to the desired concentration.
Use example—activity against brown spot of rice caused by Cochliobolus miyabeanus, protective application […]
The next day, the plants were inoculated with an aqueous spore suspension of Cochliobolus miyabeanus. The test plants were then placed in climatized chambers at 22-24° C. and 95-99% relative atmospheric humidity for 6 days. The extent of the development of the infection on the leaves was then determined visually.
Evaluation was carried out by determining the percentage of infected leaf area. These percentages were converted into efficacies.
The efficacy (E) is calculated as follows using Abbot's formula: E=(1−α/β)·100 α corresponds to the fungicidal infection of the treated plants in % and β corresponds to the fungicidal infection of the untreated (control) plants in % An efficacy of 0 means that the infection level of the treated plants corresponds to that of the untreated control plants; an efficacy of 100 means that the treated plants are not infected.

Structure (SMILES): CC1CCN(c2c(-c3c(F)cc(F)cc3F)c(Cl)nc3ncnn23)CC1 [I, 5-chloro-7-(4-methylpiperidin-1-yl)-6-(2,4,6-trifluorophenyl)-[1,2,4]triazolo[1,5-a]pyrimidine]
- Efficacy in % of the untreated control (4 ppm active compound in the spray liquor): 33%

Structure (SMILES): CCO[PH](=O)O [IIb (fosetyl-Al), ethyl phosphonate aluminum salt]
- Efficacy in % of the untreated control (1 ppm active compound in the spray liquor): 0%
- Efficacy in % of the untreated control (16 ppm active compound in the spray liquor): 0%
